In US8546579B2, “Bicycloheteroaryl compounds as P2X7 modulators and uses thereof” (Evotec (US) Inc., priority 2006, dated 2013):

Target: T1, P2X7 receptor (Homo sapiens, UniProt Q99572)
T1 construct: host or cells: THP-1 cells differentiated with LPS and IFN-γ
T1 sequence (Q99572 1-595): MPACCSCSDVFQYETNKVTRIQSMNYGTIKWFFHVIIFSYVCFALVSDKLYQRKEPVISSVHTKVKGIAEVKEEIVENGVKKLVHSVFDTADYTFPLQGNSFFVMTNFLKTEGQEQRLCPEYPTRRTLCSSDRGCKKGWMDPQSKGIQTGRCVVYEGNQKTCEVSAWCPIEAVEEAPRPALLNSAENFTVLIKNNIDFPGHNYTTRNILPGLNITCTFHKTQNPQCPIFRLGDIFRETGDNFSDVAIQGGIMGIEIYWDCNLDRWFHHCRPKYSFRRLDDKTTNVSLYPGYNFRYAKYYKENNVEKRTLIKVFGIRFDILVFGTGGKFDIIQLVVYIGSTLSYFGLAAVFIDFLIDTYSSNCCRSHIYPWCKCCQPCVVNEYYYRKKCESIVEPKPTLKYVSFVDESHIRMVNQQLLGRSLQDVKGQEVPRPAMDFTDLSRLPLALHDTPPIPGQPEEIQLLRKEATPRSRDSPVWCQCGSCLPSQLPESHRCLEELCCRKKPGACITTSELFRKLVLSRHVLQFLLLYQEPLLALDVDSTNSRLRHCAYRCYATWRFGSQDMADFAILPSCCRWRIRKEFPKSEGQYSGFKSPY
Test: IL-1β release assay in differentiated THP-1 cells stimulated with BzATP (Example 9)
Type: cell-based
Set-up: inhibition: dose or concentration left out as unconfirmed
Conditions: 0.1 μM compound; differentiated THP-1 cells, BzATP 250 uM; "*" class symbols; read-out: IL-1β % Inhib. ("*" symbols: at 0.1 μM)
Method in brief: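 IC50 derived by four-parameter logistic fit of percent inhibition of IL-1β release, measured by ELISA after 45 min stimulation with 250 uM BzATP. Cells: THP-1 differentiated 16 h with 100 ng/mL LPS plus IFN-γ, LPS-primed 2 h, compound added 30 min beforehand.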

inhibition at 0.1 µM [%] | Compound
0 to 25 | COc1ccc(CC(=O)Nc2cccc3c(=O)n(Cc4ccc(OC(F)(F)F)cc4)ccc23)cc1C [Compound 1605]
0 to 25 | Cc1cc(C)cc(CC(=O)Nc2cccc3c(=O)n(Cc4ccc(OC(F)(F)F)cc4)ccc23)c1 [Compound 1599]
0 to 25 | Cc1cccc(CCC(=O)Nc2cccc3c(=O)n(Cc4ccc(OC(F)(F)F)cc4)ccc23)c1 [Compound 1606]

Same assay, conditions: 0.1 μM compound; differentiated THP-1 cells, BzATP 250 uM; '*' class symbols; read-out: IL-1β % Inhib. (asterisk classes, 0.1 μM)

inhibition at 0.1 µM [%] | Compound
0 to 25 | CC1CCC(C(=O)Nc2cccc3c(=O)n(CC(C)(C)C)ccc23)CC1 (centres unmarked) [Compound 1047]

Same assay, conditions: 0.1 μM compound; differentiated THP-1 cells, BzATP 250 uM; symbols * to ****; read-out: IL-1β % Inhib. (asterisk symbols: at 0.1 μM)

inhibition at 0.1 µM [%] | Compound
0 to 25 | CC(C)(C)c1ccc(C(=O)Nc2cccc3c(=O)n(CCN4CCOCC4)ccc23)cc1 [Compound 1199]
26 to 50 | CC(C(=O)Nc1cccc2c(=O)n(Cc3cccnc3)ccc12)c1ccccc1 (centres unmarked) [Compound 1347]

Same assay, conditions: 0.3 μM compound; differentiated THP-1 cells, BzATP 250 uM; "+" class symbols; read-out: IL-1β % Inhib. @ 0.3 μM

inhibition at 0.3 µM [%] | Compound
≥ 76 | CS(=O)(=O)CCn1ccc2c(NC(=O)Cc3ccc(Cl)c(C(F)(F)F)c3)cccc2c1=O [Compound 1630, 2-(4-Chloro-3-trifluoromethyl-phenyl)-N-[2-(2-methanesulfonyl-ethyl)-1-oxo-1,2-dihydro-isoquinolin-5-yl]acetamide]
≥ 76 | O=C(Cc1ccc(Cl)c(C(F)(F)F)c1)Nc1cccc2c(=O)n(Cc3ccccn3)ccc12 [Compound 1628, 2-(4-Chloro-3-trifluoromethyl-phenyl)-N-(1-oxo-2-pyridin-2-ylmethyl-1,2-dihydro-isoquinolin-5-yl)-acetamide]
26 to 50 | CS(=O)(=O)CCn1ccc2c(NC(=O)Cc3ccc(Cl)c(Cl)c3)cccc2c1=O [Compound 1632]

Same assay, conditions: 0.3 μM compound; differentiated THP-1 cells, BzATP 250 uM; '+' class symbols; read-out: IL-1β % Inhib. @ 0.3 μM

inhibition at 0.3 µM [%] | Compound
0 to 25 | COc1ccc(CCC(=O)Nc2cccc3c(=O)n(CC4CCOCC4)ccc23)cc1 [Compound 1095]
≥ 76 | CN(C)CCn1ccc2c(NC(=O)Cc3ccc(Cl)cc3)cccc2c1=O [Compound 1004]
0 to 25 | Cc1ccc(Cl)c(C(=O)Nc2cccc3c(=O)n(CCN(C)C)ccc23)c1 [Compound 1179]
0 to 25 | COc1ccc(C(=O)Nc2cccc3c(=O)n(Cc4cccnc4)ccc23)cc1Cl [Compound 1078]

The next lines start with the compound.

Compound | inhibition at 0.3 µM [%]
Cc1ccc(C(=O)Nc2cccc3c(=O)n(CCN4CCOCC4)ccc23)c(C)c1 [Compound 1193] | 0 to 25
CN(C)CCn1ccc2c(NC(=O)c3ccc(C(C)(C)C)cc3)cccc2c1=O [Compound 1147] | 0 to 25
O=C(Nc1cccc2c(=O)n(CC3CCOCC3)ccc12)c1ccc2ccccc2c1 [Compound 1098] | 0 to 25
Cc1ccc(Cl)c(C(=O)Nc2cccc3c(=O)n(CC4CCOCC4)ccc23)c1 [Compound 1128] | 0 to 25
O=C(CCCc1ccccc1)Nc1cccc2c(=O)n(CC3CCOCC3)ccc12 [Compound 1108] | 0 to 25
O=C(Cc1csc2ccccc12)Nc1cccc2c(=O)n(CC3CCOCC3)ccc12 [Compound 1119] | 0 to 25

Same assay, conditions: 0.3 μM compound; differentiated THP-1 cells, BzATP 250 uM; symbols + to ++++; read-out: IL-1β % Inhib. @ 0.3 μM

inhibition at 0.3 µM [%] | Compound
0 to 25 | COc1ccc(CC(=O)Nc2cccc3c(=O)n(CCN4CCOCC4)ccc23)cc1C [Compound 1234]
0 to 25 | COCCn1ccc2c(NC(=O)Cc3ccc(OC)c(C)c3)cccc2c1=O [Compound 1337]
0 to 25 | COc1ccc(OC)c(CC(=O)Nc2cccc3c(=O)n(Cc4cccnc4)ccc23)c1 [Compound 1352]
0 to 25 | COCCn1ccc2c(NC(=O)CCc3cccc(C)c3)cccc2c1=O [Compound 1338]
0 to 25 | CC(C)(C)Cn1ccc2c(NC(=O)c3ccc4ccccc4c3)cccc2c1=O [Compound 1251]
0 to 25 | COc1ccc(CC(=O)Nc2cccc3c(=O)n(Cc4cccnc4)ccc23)cc1C [Compound 1367]
0 to 25 | COc1ccc(CC(=O)Nc2cccc3c(=O)n(CC(C)(C)C)ccc23)cc1OC [Compound 1258]
0 to 25 | CC(C)(C)Cn1ccc2c(NC(=O)CCc3cccc(Cl)c3)cccc2c1=O [Compound 1287]
0 to 25 | COc1ccc(CC(=O)Nc2cccc3c(=O)n(Cc4cccnc4)ccc23)c(OC)c1 [Compound 1365]
0 to 25 | COCCn1ccc2c(NC(=O)Cc3ccc4c(c3)OCO4)cccc2c1=O [Compound 1321]
0 to 25 | CC(C)(C)Cn1ccc2c(NC(=O)Cc3ccccc3Cl)cccc2c1=O [Compound 1253]

The remaining lines, values behind:

Compound | inhibition at 0.3 µM [%]
CC(C)(C)Cn1ccc2c(NC(=O)[C@@]34C[C@@H]5C[C@@H](C[C@@H]3C5)C4)cccc2c1=O [Compound 1271] | 0 to 25
CC(=O)OCCn1ccc2c(NC(=O)CCc3ccc(S(C)(=O)=O)cc3)cccc2c1=O [Compound 1383] | 0 to 25
COc1c(C)cc(C(=O)Nc2cccc3c(=O)n(CCN4CCOCC4)ccc23)cc1C [Compound 1219] | 26 to 50
O=C(Cc1cccc2ccccc12)Nc1cccc2c(=O)n(CCN3CCOCC3)ccc12 [Compound 1203] | 0 to 25
Cc1ccc(Cl)c(C(=O)Nc2cccc3c(=O)n(CCN4CCOCC4)ccc23)c1 [Compound 1235] | 0 to 25
O=C(CC1CC2CC[C@H]1C2)Nc1cccc2c(=O)n(CCN3CCOCC3)ccc12 (some centres unmarked) [Compound 1222] | 0 to 25
O=C(Nc1cccc2c(=O)n(CCN3CCOCC3)ccc12)c1cc2cc(Cl)ccc2o1 [Compound 1238] | 26 to 50
Cn1ccc2c(NC(=O)c3ccc4c(c3)OCCCO4)cccc2c1=O [Compound 1305] | 0 to 25
Cc1ccc(Cl)cc1C(=O)Nc1cccc2c(=O)n(CC(C)(C)C)ccc12 [Compound 1283] | 26 to 50

Same assay, conditions: THP-1; read-out: IL-1β % Inhib.

inhibition [%] | Compound
0 to 25 | COCCn1ccc2c(NC(=O)Cc3cccc4ccccc34)cccc2c1=O [Compound 1433]
0 to 25 | O=C(CCc1ccc2c(c1)OCO2)Nc1cccc2c(=O)n(Cc3ccc(OC(F)(F)F)cc3)ccc12 [Compound 1558]
0 to 25 | COc1ccccc1CCC(=O)Nc1cccc2c(=O)n(Cc3ccc(OC(F)(F)F)cc3)ccc12 [Compound 1571]
0 to 25 | Cc1cccc(CC(=O)Nc2cccc3c(=O)n(Cc4ccc(OC(F)(F)F)cc4)ccc23)c1 [Compound 1582]
0 to 25 | O=C(Cc1ccccc1F)Nc1cccc2c(=O)n(Cc3ccc(OC(F)(F)F)cc3)ccc12 [Compound 1575]
0 to 25 | Cc1cccc(C(=O)Nc2cccc3c(=O)n(Cc4ccc(OC(F)(F)F)cc4)ccc23)c1 [Compound 1567]

Continued, compound first:

Compound | inhibition [%]
CCOc1ccc(C(=O)Nc2cccc3c(=O)n(CCCN4CCCC4=O)ccc23)cc1 [Compound 1514] | 0 to 25
COc1ccc(C(=O)Nc2cccc3c(=O)n(C)ccc23)cc1C [Compound 1424] | 0 to 25
CN1CCC(Cn2ccc3c(NC(=O)CC4CC5CC[C@H]4C5)cccc3c2=O)CC1 (some centres unmarked) [Compound 1479] | 0 to 25
COc1ccc(C(=O)Nc2cccc3c(=O)n(CC(C)(C)C)ccc23)cc1C [Compound 1418] | 0 to 25
CCOc1ccc(C(=O)Nc2cccc3c(=O)n(CCN4CCOCC4)ccc23)c(O)c1 [Compound 1403] | 0 to 25
O=C(Nc1cccc2c(=O)n(CCCN3CCCC3=O)ccc12)c1cc2ccccc2o1 [Compound 1526] | 0 to 25
COc1ccc(C(=O)Nc2cccc3c(=O)n(CCN(C)C)ccc23)cc1Cl [Compound 1402] | 0 to 25
O=C(Nc1cccc2c(=O)n(CCCN3CCCC3=O)ccc12)c1cccc2c1OCCO2 [Compound 1533] | 26 to 50
Cc1ccccc1CCC(=O)Nc1cccc2c(=O)n(CCN3CCOCC3)ccc12 [Compound 1404] | 0 to 25
CN1CCC(Cn2ccc3c(NC(=O)C4C[C@@H]5CC[C@H]4C5)cccc3c2=O)CC1 (some centres unmarked) [Compound 1483] | 26 to 50
O=C(Nc1cccc2c(=O)n(CCCN3CCCC3=O)ccc12)C(O)c1ccccc1Cl (centres unmarked) [Compound 1531] | 26 to 50
O=C(CCc1cccc(Cl)c1)Nc1cccc2c(=O)n(CCCN3CCCC3=O)ccc12 [Compound 1547] | 0 to 25
COCCn1ccc2c(NC(=O)c3cc(Cl)ccc3C)cccc2c1=O [Compound 1441] | 0 to 25
COc1ccc(C(=O)Nc2cccc3c(=O)n(CC4CCN(C)CC4)ccc23)cc1C [Compound 1490] | 0 to 25
COCCn1ccc2c(NC(=O)C(C)c3ccccc3)cccc2c1=O (centres unmarked) [Compound 1431] | 0 to 25

Same assay, conditions: THP-1 cells, BzATP-stimulated IL-1β release, four parameter logistic fit

IC50 [nM] | Compound
> 1000 | CC(=O)OCCn1ccc2c(NC(=O)CCc3ccc(S(C)(=O)=O)cc3)cccc2c1=O [Compound 1383]
108 | CS(=O)(=O)CCn1ccc2c(NC(=O)Cc3ccc(Cl)c(C(F)(F)F)c3)cccc2c1=O [Compound 1630, 2-(4-Chloro-3-trifluoromethyl-phenyl)-N-[2-(2-methanesulfonyl-ethyl)-1-oxo-1,2-dihydro-isoquinolin-5-yl]acetamide]
108 | CN(C)CCn1ccc2c(NC(=O)Cc3ccc(Cl)cc3)cccc2c1=O [Compound 1004]
55.9 | O=C(Cc1ccc(Cl)c(C(F)(F)F)c1)Nc1cccc2c(=O)n(Cc3ccccn3)ccc12 [Compound 1628, 2-(4-Chloro-3-trifluoromethyl-phenyl)-N-(1-oxo-2-pyridin-2-ylmethyl-1,2-dihydro-isoquinolin-5-yl)-acetamide]
315 | CS(=O)(=O)CCn1ccc2c(NC(=O)Cc3ccc(Cl)c(Cl)c3)cccc2c1=O [Compound 1632]
